Experimental data published in PubChem BioAssay (NCI).
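All cell lines were grown in 96-well plates and treated with compound for 48 hours. Definition used: TGI = concentration required for complete inhibition of growth.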

Columns and labels:
Test in all cases: DTP human tumour cell line panel, 48 h
SK-MEL-28 melanoma = tested on: SK-MEL-28 melanoma
RXF 393 renal = tested on: RXF 393 renal
EKVX NSCLC = tested on: EKVX NSCLC
UACC-62 melanoma = tested on: UACC-62 melanoma
OVCAR-3 ovarian = tested on: OVCAR-3 ovarian
PC-3 prostate = tested on: PC-3 prostate
SW-620 colon = tested on: SW-620 colon
SK-MEL-2 melanoma = tested on: SK-MEL-2 melanoma
ACHN renal = tested on: ACHN renal
UACC-257 melanoma = tested on: UACC-257 melanoma
DU-145 prostate = tested on: DU-145 prostate
MDA-N = tested on: MDA-N
COLO 205 colon = tested on: COLO 205 colon
HL-60(TB) leukemia = tested on: HL-60(TB) leukemia
SN12C renal = tested on: SN12C renal
TK-10 renal = tested on: TK-10 renal
NCI-H460 lung = tested on: NCI-H460 lung
SR leukemia = tested on: SR leukemia
HOP-92 NSCLC = tested on: HOP-92 NSCLC
A498 renal = tested on: A498 renal
HT29 colon = tested on: HT29 colon
SK-OV-3 ovarian = tested on: SK-OV-3 ovarian
MOLT-4 leukemia = tested on: MOLT-4 leukemia
SNB-19 CNS = tested on: SNB-19 CNS
UO-31 renal = tested on: UO-31 renal
SF-268 CNS = tested on: SF-268 CNS
NCI-H226 lung = tested on: NCI-H226 lung
LOX IMVI melanoma = tested on: LOX IMVI melanoma
SK-MEL-5 melanoma = tested on: SK-MEL-5 melanoma
MALME-3M melanoma = tested on: MALME-3M melanoma
HCT-15 colon = tested on: HCT-15 colon
HOP-62 NSCLC = tested on: HOP-62 NSCLC
RPMI-8226 leukemia = tested on: RPMI-8226 leukemia
BT-549 breast = tested on: BT-549 breast
786-0 renal = tested on: 786-0 renal
NCI-H522 lung = tested on: NCI-H522 lung
CCRF-CEM leukemia = tested on: CCRF-CEM leukemia
U251 CNS = tested on: U251 CNS
OVCAR-5 ovarian = tested on: OVCAR-5 ovarian
NCI-H23 lung = tested on: NCI-H23 lung
HCT-116 colon = tested on: HCT-116 colon
KM12 colon = tested on: KM12 colon
SF-295 CNS = tested on: SF-295 CNS
MDA-MB-435 = tested on: MDA-MB-435
IGROV1 ovarian = tested on: IGROV1 ovarian
CAKI-1 renal = tested on: CAKI-1 renal
MDA-MB-231 breast = tested on: MDA-MB-231 breast
K-562 leukemia = tested on: K-562 leukemia
HCC-2998 colon = tested on: HCC-2998 colon
OVCAR-4 ovarian = tested on: OVCAR-4 ovarian
HS 578T breast = tested on: HS 578T breast
MCF7 breast = tested on: MCF7 breast
SNB-75 CNS = tested on: SNB-75 CNS
SF-539 CNS = tested on: SF-539 CNS
A549 NSCLC = tested on: A549 NSCLC
M14 melanoma = tested on: M14 melanoma
T-47D breast = tested on: T-47D breast
NCI/ADR-RES ovarian = tested on: NCI/ADR-RES ovarian
OVCAR-8 ovarian = tested on: OVCAR-8 ovarian

Compound: N#Cc1nc(-c2ccccn2)oc1N
- TGI (SK-MEL-28 melanoma): > 100 µM
- TGI (RXF 393 renal): > 100 µM
- TGI (EKVX NSCLC): > 100 µM
- TGI (UACC-62 melanoma): > 100 µM
- TGI (OVCAR-3 ovarian): > 100 µM
- TGI (PC-3 prostate): > 100 µM
- TGI (SW-620 colon): > 100 µM
- TGI (SK-MEL-2 melanoma): > 100 µM
- TGI (ACHN renal): > 100 µM
- TGI (UACC-257 melanoma): > 100 µM
- TGI (DU-145 prostate): > 100 µM
- TGI (MDA-N): > 100 µM
- TGI (COLO 205 colon): > 100 µM
- TGI (HL-60(TB) leukemia): > 100 µM
- TGI (SN12C renal): > 100 µM
- TGI (TK-10 renal): > 100 µM
- TGI (NCI-H460 lung): > 100 µM
- TGI (SR leukemia): > 100 µM
- TGI (HOP-92 NSCLC): > 100 µM
- TGI (A498 renal): > 100 µM
- TGI (HT29 colon): > 100 µM
- TGI (SK-OV-3 ovarian): > 100 µM
- TGI (MOLT-4 leukemia): > 100 µM
- TGI (SNB-19 CNS): > 100 µM
- TGI (UO-31 renal): > 100 µM
- TGI (SF-268 CNS): > 100 µM
- TGI (NCI-H226 lung): > 100 µM
- TGI (LOX IMVI melanoma): > 100 µM
- TGI (SK-MEL-5 melanoma): > 100 µM
- TGI (MALME-3M melanoma): > 100 µM
- TGI (HCT-15 colon): > 100 µM
- TGI (HOP-62 NSCLC): > 100 µM
- TGI (RPMI-8226 leukemia): > 100 µM
- TGI (BT-549 breast): > 100 µM
- TGI (786-0 renal): > 100 µM
- TGI (NCI-H522 lung): > 100 µM
- TGI (CCRF-CEM leukemia): > 100 µM
- TGI (U251 CNS): > 100 µM
- TGI (OVCAR-5 ovarian): > 100 µM
- TGI (NCI-H23 lung): > 100 µM
- TGI (HCT-116 colon): > 100 µM
- TGI (KM12 colon): > 100 µM
- TGI (SF-295 CNS): > 100 µM
- TGI (MDA-MB-435): > 100 µM
- TGI (IGROV1 ovarian): > 100 µM
- TGI (CAKI-1 renal): > 100 µM
- TGI (MDA-MB-231 breast): > 100 µM
- TGI (K-562 leukemia): > 100 µM
- TGI (HCC-2998 colon): > 100 µM
- TGI (OVCAR-4 ovarian): > 100 µM
- TGI (HS 578T breast): > 100 µM
- TGI (MCF7 breast): > 100 µM

Compound: O=c1[nH]nc(Cn2c3ccc(Br)cc3c3nc4ccccc4nc32)n1C1CCCCC1
- TGI (SK-MEL-28 melanoma): 59.2 µM
- TGI (SNB-75 CNS): > 100 µM
- TGI (RXF 393 renal): > 100 µM
- TGI (EKVX NSCLC): > 100 µM
- TGI (UACC-62 melanoma): 81.1 µM
- TGI (OVCAR-3 ovarian): > 100 µM
- TGI (PC-3 prostate): 59.8 µM
- TGI (SW-620 colon): > 100 µM
- TGI (SK-MEL-2 melanoma): > 100 µM
- TGI (ACHN renal): > 100 µM
- TGI (UACC-257 melanoma): > 100 µM
- TGI (DU-145 prostate): > 100 µM
- TGI (MDA-N): > 100 µM
- TGI (COLO 205 colon): > 100 µM
- TGI (SN12C renal): > 100 µM
- TGI (TK-10 renal): > 100 µM
- TGI (NCI-H460 lung): > 100 µM
- TGI (SR leukemia): > 100 µM
- TGI (HOP-92 NSCLC): 63.3 µM
- TGI (A498 renal): 57.4 µM
- TGI (HT29 colon): > 100 µM
- TGI (SK-OV-3 ovarian): > 100 µM
- TGI (MOLT-4 leukemia): > 100 µM
- TGI (SNB-19 CNS): > 100 µM
- TGI (UO-31 renal): > 100 µM
- TGI (SF-268 CNS): > 100 µM
- TGI (NCI-H226 lung): > 100 µM
- TGI (LOX IMVI melanoma): > 100 µM
- TGI (SK-MEL-5 melanoma): > 100 µM
- TGI (HCT-15 colon): > 100 µM
- TGI (HOP-62 NSCLC): 52.8 µM
- TGI (SF-539 CNS): 46 µM
- TGI (A549 NSCLC): > 100 µM
- TGI (M14 melanoma): > 100 µM
- TGI (RPMI-8226 leukemia): 77.6 µM
- TGI (T-47D breast): > 100 µM
- TGI (BT-549 breast): > 100 µM
- TGI (786-0 renal): > 100 µM
- TGI (NCI/ADR-RES ovarian): > 100 µM
- TGI (U251 CNS): > 100 µM
- TGI (OVCAR-5 ovarian): > 100 µM
- TGI (NCI-H23 lung): 40.9 µM
- TGI (HCT-116 colon): > 100 µM
- TGI (KM12 colon): > 100 µM
- TGI (SF-295 CNS): > 100 µM
- TGI (MDA-MB-435): > 100 µM
- TGI (IGROV1 ovarian): > 100 µM
- TGI (OVCAR-8 ovarian): > 100 µM
- TGI (CAKI-1 renal): > 100 µM
- TGI (MDA-MB-231 breast): > 100 µM
- TGI (K-562 leukemia): > 100 µM
- TGI (HCC-2998 colon): > 100 µM
- TGI (OVCAR-4 ovarian): > 100 µM
- TGI (MCF7 breast): > 100 µM
